Values joined by “and” are separate entries in the source; they are usually repeats but may differ in a detail not shown here. Identical values can stand only once.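 Dose response: 5 concentrations. Exposure: 48 h. Format: 96-well plates. Endpoint: linear interpolation; highest concentration if not reached. The concentration for 50% growth inhibition is given as GI50. Definition used: TGI = concentration required for complete inhibition of growth.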
Tests used:
Assay in all cases: growth of human tumour cells (NCI), 48 h
[1] = system: MALME-3M melanoma
[2] = system: MDA-MB-435
[3] = system: RPMI-8226 leukemia
[4] = system: SK-MEL-2 melanoma
[5] = system: SN12C renal
[6] = system: EKVX NSCLC
[7] = system: HCT-116 colon
[8] = system: NCI-H226 lung
[9] = system: NCI-H522 lung
[10] = system: LOX IMVI melanoma

`Brc1ccc2[nH]cc(-c3nc(-c4c[nH]c5ccncc45)cs3)c2c1` showed a GI50 [1] of 2.14 µM, a TGI [1] of 3.72 µM and a GI50 [2] of 1.66 µM. For the same compound, the TGI [2] was 3.06 µM, the GI50 [3] was 2.48 µM and the TGI [3] was 5.23 µM. For the same compound, the GI50 [4] was 1.92 µM, the TGI [4] was 3.72 µM and the GI50 [5] was 1.79 µM. For the same compound, the TGI [5] was 3.32 µM.
`Nc1ncc(Cc2nn3c(COc4ccc(Cl)cc4)nnc3s2)s1` gave a TGI [6] of over 100 µM, a TGI [7] of over 100 µM and a TGI [1] of over 100 µM. It also gave a TGI [2] of over 100 µM, a TGI [8] of over 100 µM and a TGI [9] of over 100 µM. For the same compound, the TGI [3] was over 100 µM, the TGI [4] was over 100 µM and the TGI [5] was over 100 µM.
With `N#Cc1nc(Cc2cccs2)oc1N` the TGI [6] was over 100 µM, the TGI [7] was over 100 µM and the TGI [10] was over 100 µM. The TGI [2] was over 100 µM, the TGI [3] was over 100 µM and the TGI [4] was over 100 µM. It also gave a TGI [5] of over 100 µM.
Work on `c1csc(-c2csc(-c3cccs3)c2)c1` yielded a TGI [6] of over 100 µM, a TGI [7] of over 100 µM and a TGI [10] of over 100 µM. It also gave a TGI [1] of over 100 µM, a TGI [2] of over 100 µM and a TGI [9] of over 100 µM. For the same compound, the TGI [3] was 57.1 µM, the TGI [4] was 41.1 µM and the TGI [5] was over 100 µM.
For `CC(=O)Nc1oc(C)nc1C#N`, the TGI [6] was over 100 µM, the TGI [7] was over 100 µM and the TGI [10] was over 100 µM. It also gave a TGI [2] of over 100 µM, a TGI [3] of over 100 µM and a TGI [4] of over 100 µM. It also gave a TGI [5] of over 100 µM.
For `O=C(O)C1(Cc2ccc3c(c2)CCC3)Cc2cc3c(cc2C1)CCC3`, the TGI [6] was over 100 µM, the TGI [7] was over 100 µM and the TGI [10] was over 100 µM. The TGI [1] was over 100 µM, the TGI [2] was over 100 µM and the TGI [8] was over 100 µM. The TGI [3] was over 100 µM and the TGI [4] was over 100 µM.
For `COC(=O)C[C@H]1[C@]2(C)C3=C(C)[C@H](c4ccoc4)CC3O[C@@H]2[C@@H]2OC(=O)[C@]3(C)CCC(=O)[C@@]1(C)[C@@H]23` (some centres not stated), the TGI [7] was over 100 µM, the TGI [10] was over 100 µM and the TGI [1] was over 100 µM. The TGI [2] was over 100 µM, the TGI [9] was 91.1 µM and the TGI [3] was 50.1 µM. It also gave a TGI [4] of over 100 µM and a TGI [5] of over 100 µM.
In the case of `COc1ccc(/C(Cl)=C(\C=O)c2ccc(Cl)cc2)cc1`, the TGI [6] is reported as over 100 µM, the TGI [7] is reported as 20.8 µM and the TGI [10] is reported as 23.8 µM. It also gave a TGI [1] of over 100 µM, a TGI [8] of 48.1 µM and a TGI [9] of 5.89 µM. It also gave a TGI [4] of 54.6 µM and a TGI [5] of 13.6 µM.
Work on `CN(CCc1ccccn1)C(=S)N/N=C/c1ccccn1` yielded a TGI [10] of 13.6 µM, a TGI [1] of 8.81 µM and a TGI [2] of 38.1 µM. For the same compound, the TGI [8] was 0.255 µM, the TGI [9] was 0.29 µM and the TGI [3] was 0.0424 µM. The TGI [4] was 0.27 µM and the TGI [5] was over 36.2 µM.
`CCCCC[C@@H]1OC(=O)[C@@]2(CC3c4ccccc4C2c2ccccc23)[C@H]1C(=O)OC` was tested, and the TGI [6] was over 100 µM, the TGI [7] was over 100 µM and the TGI [10] was over 100 µM. The TGI [1] was over 100 µM, the TGI [2] was over 100 µM and the TGI [3] was 54.3 µM. It also gave a TGI [4] of over 100 µM and a TGI [5] of over 100 µM.
Work on `CC1(C)CN=C(c2ccc3ccccc3c2O)N1` yielded a TGI [6] of over 100 µM, a TGI [7] of over 100 µM and a TGI [10] of over 100 µM. For the same compound, the TGI [2] was over 100 µM, the TGI [3] was over 100 µM and the TGI [4] was over 100 µM. For the same compound, the TGI [5] was over 100 µM.
For `C#Cc1ccccc1C(=O)OC`, the TGI [6] was over 100 µM, the TGI [7] was over 100 µM and the TGI [10] was over 100 µM. It also gave a TGI [1] of over 100 µM, a TGI [8] of over 100 µM and a TGI [9] of over 100 µM. For the same compound, the TGI [3] was over 100 µM, the TGI [4] was over 100 µM and the TGI [5] was over 100 µM.
For `COc1cccc2c1C(=O)c1c(O)c3c(c(O)c1C2=O)C[C@](O)(C(=O)CO)CC3OC1CC(N)C(OC2CCCCO2)C(C)O1` (some centres not stated), the TGI [6] was 3.43 µM, the TGI [7] was 2.49 µM and the TGI [10] was 1.66 µM. It also gave a TGI [1] of 0.705 µM, a TGI [8] of 0.434 µM and a TGI [9] of 2.62 µM. For the same compound, the TGI [3] was 5.12 µM, the TGI [4] was 2.43 µM and the TGI [5] was 3.12 µM.
For `Nc1ncnc2c(C3OC(CO)C(O)C3O)c[nH]c12` (configuration not stated), the GI50 [6] was under 0.0171 µM, the TGI [6] was 0.415 µM and 0.274 µM and the TGI [7] was 0.16 µM. The TGI [10] was 0.0274 µM and < 0.0155 µM, the GI50 [1] was 0.011 µM and the TGI [1] was 0.0868 µM and 0.0571 µM. The TGI [2] was 0.182 µM and 0.125 µM, the GI50 [8] was 0.0189 µM and the TGI [8] was 0.271 µM and 0.159 µM. For the same compound, the TGI [9] was 0.0601 µM and 0.0389 µM, the GI50 [4] was 0.00179 µM and the TGI [4] was 0.0101 µM and < 0.0304 µM. The TGI [5] was 0.0946 µM and 0.537 µM.
Compound `Cc1cccc(/C=N/NC(=S)NC(C)(C)C)n1` has a TGI [7] of over 100 µM, a TGI [10] of over 100 µM and a TGI [1] of over 100 µM. For the same compound, the TGI [2] was over 100 µM, the TGI [8] was over 100 µM and the TGI [9] was over 100 µM. It also gave a TGI [3] of over 100 µM, a TGI [4] of over 100 µM and a TGI [5] of over 100 µM.
For `COC(=O)[C@]12CCC(=O)N1[C@H](C(=O)O)Cc1c2[nH]c2ccccc12`, the TGI [6] was over 100 µM, the TGI [7] was over 100 µM and the TGI [10] was over 100 µM. For the same compound, the TGI [1] was over 100 µM, the TGI [2] was over 100 µM and the TGI [9] was over 100 µM. It also gave a TGI [4] of over 100 µM and a TGI [5] of over 100 µM.
Compound `CN(C)CCCN1C(=O)N(CCCN(C)C)c2c3cc(O)ccc3nc3c([N+](=O)[O-])ccc1c23` has a TGI [7] of 38.2 µM, a TGI [10] of 26.6 µM and a TGI [1] of 33.9 µM. The TGI [2] was 36.2 µM, the TGI [8] was 61.7 µM and the TGI [9] was 20.5 µM. The TGI [3] was 63.3 µM, the TGI [4] was 29.8 µM and the TGI [5] was 49.1 µM.
`Fc1ccccc1C1SCC2=Nc3ccccc3CN21` (configuration not stated) was tested, and the TGI [6] was over 100 µM, the TGI [7] was over 100 µM and the TGI [10] was over 100 µM. The TGI [2] was over 100 µM, the TGI [3] was over 100 µM and the TGI [4] was over 100 µM. For the same compound, the TGI [5] was over 100 µM.
For `Cc1cccc(-c2cc(=O)c3c(C)ccnc3[nH]2)c1`, the TGI [6] was over 100 µM, the TGI [7] was over 33.5 µM and the TGI [10] was over 100 µM. For the same compound, the TGI [8] was over 100 µM, the TGI [9] was 0.798 µM and the TGI [3] was 26.1 µM. It also gave a TGI [4] of over 100 µM and a TGI [5] of over 100 µM.
With `C=C1C(=O)OC2C1CC1OC2C(C)CCC/C(C)=C\CCC1(C)O` (configuration not stated) the TGI [6] was 79.4 µM, the TGI [7] was 41 µM and the TGI [10] was 13.8 µM. The TGI [1] was 80.6 µM, the TGI [8] was 51.3 µM and the TGI [9] was 26.2 µM. It also gave a TGI [3] of 24.3 µM, a TGI [4] of 32.7 µM and a TGI [5] of 62.5 µM.
`CCOC(=O)Cn1c(C)nc2nn(Cc3ccccc3)cc2c1=O` gave a TGI [6] of over 100 µM, a TGI [7] of over 100 µM and a TGI [1] of over 100 µM. It also gave a TGI [2] of over 100 µM, a TGI [8] of over 100 µM and a TGI [4] of over 100 µM. For the same compound, the TGI [5] was over 100 µM.
`COC(=O)C1CC(C=O)=C(SC)N1` (configuration not stated) was tested, and the TGI [6] was over 50 µM, the TGI [7] was over 50 µM and the TGI [1] was over 50 µM. The TGI [2] was over 50 µM, the TGI [9] was over 50 µM and the TGI [3] was over 50 µM. For the same compound, the TGI [4] was over 50 µM.
For `CCC[CH2][Ge]([CH2]CCC)([CH2]CCC)[O]C(=O)CCl`, the GI50 [6] was 1.18 µM, the TGI [6] was 16.2 µM and the GI50 [7] was 0.498 µM. For the same compound, the TGI [7] was 13.3 µM, the GI50 [10] was 1.16 µM and the TGI [10] was 3.52 µM. For the same compound, the GI50 [1] was 1.14 µM, the TGI [1] was 12.5 µM and the GI50 [8] was 14.1 µM. It also gave a TGI [8] of 31.5 µM, a GI50 [9] of 0.214 µM and a GI50 [4] of 3.59 µM. The TGI [4] was 19.7 µM, the GI50 [5] was 1.46 µM and the TGI [5] was 19.3 µM.
In the case of `Cc1cn(C2CC(O)C(Cn3cc(Cn4nc(Br)c(=O)[nH]c4=O)nn3)O2)c(=O)[nH]c1=O` (configuration not stated), the TGI [6] is reported as over 100 µM, the TGI [7] is reported as over 100 µM and the TGI [1] is reported as over 100 µM. For the same compound, the TGI [2] was over 100 µM, the TGI [8] was over 100 µM and the TGI [3] was over 100 µM. For the same compound, the TGI [4] was over 100 µM and the TGI [5] was over 100 µM.
